Numbered stars: 1 amine (or outer) side, 2 acyl side, 3 side chain; on linkers, the order of the positions; unused ones are H or OH. Bridge positions count the residues as written; N and C are the ends. Square brackets hold non-standard residues; d marks the D form. Peptide text beside a SMILES is read from it. * marks the point of attachment. Phe(3-CF3) = N[C@@H](Cc1cccc(C(F)(F)F)c1)C(=O)O; Ala(morpholin-4-yl) = N[C@@H](CN1CCOCC1)C(=O)O; Phe(4-COOH) = N[C@@H](Cc1ccc(C(=O)O)cc1)C(=O)O; Bip = N[C@@H](Cc1ccc(-c2ccccc2)cc1)C(=O)O; γGlu = O=C(O)[C@H](CCC(=O)[*:2])N[*:1]; Abu(3S-NH2) = C[C@H](N)[C@H](N)C(=O)O; βAsp = O=C(O)[C@H](CC(=O)[*:2])N[*:1]; NH(CH2)12COOH = O=C(O)CCCCCCCCCCCCN*; Val(3-OH) = CC(C)(O)[C@H](N)C(=O)O; Cha = N[C@@H](CC1CCCCC1)C(=O)O; Carboxymethyl = O=C(O)C*; Orn = NCCC[C@H](N)C(=O)O; Dab = NCC[C@H](N)C(=O)O; AEEA = NCCOCCOCC(=O)O

The target of this assay is T1, PD-1/PD-L1 interaction (PE-labeled human PD-L1-Ig binding to Jurkat cell line over-expressing human PD-1) (Homo sapiens, UniProt Q15116).
T1 construct: expressed in transfected cells; host or cells: Jurkat
T1 sequence (Q15116 25-288): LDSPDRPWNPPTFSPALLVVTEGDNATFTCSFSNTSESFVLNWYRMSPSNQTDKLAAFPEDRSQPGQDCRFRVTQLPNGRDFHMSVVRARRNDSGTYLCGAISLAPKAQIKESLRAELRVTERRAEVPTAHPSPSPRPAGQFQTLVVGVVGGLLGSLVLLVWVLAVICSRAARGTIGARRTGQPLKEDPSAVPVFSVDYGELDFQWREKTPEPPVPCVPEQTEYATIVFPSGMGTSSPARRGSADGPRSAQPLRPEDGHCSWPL
Description: Jurkat-PD-1 Cell Binding High-Content Screening Assay (CBA). The class given is cell-based. The conditions noted are these: Jurkat cell line over-expressing human PD-1; PE-labeled PD-L1-Ig 20 nM final; read-out: Jurkat hPD1-PDL1 IC50. The method in brief:
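Jurkat-hPD-1 cells, DMEM/10% FCS; cpd 2 h 37° C; PE-PD-L1-Ig 20 nM final, 1 h; 4% PFA fix + Hoechst 33342, 3× dPBS wash; high-content imaging read-out.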
What is called IC50 is the concentration at which inhibition is half-maximal. Take `CC(C)C[C@H]1NC(=O)[C@H](CCCN)NC(=O)[C@H](Cc2ccc(C(=O)O)cc2)NC(=O)[C@H](Cc2ccc(-c3ccccc3)cc2)NC(=O)[C@H](Cc2ccc(C(=O)O)cc2)NC(=O)[C@H](Cc2cccc(C(F)(F)F)c2)NC(=O)[C@H](CC(=O)O)NC(=O)[C@H](Cc2ccc(OCC(=O)O)cc2)NC(=O)[C@H](C)NC(=O)CSC[C@@H](C(=O)N[C@@H](CCN)C(=O)NCCOCCOCC(=O)N[C@@H](CCC(=O)NCCOCCOCC(=O)NCCCCCCCCCCCCC(=O)O)C(=O)O)NC(=O)[C@H](CO)NC(=O)[C@H](C(C)(C)O)NC(=O)[C@H](CC2CCCCC2)NC(=O)[C@H](CCN)NC1=O` [Compound 2934] ({CH2CO}-AY(Carboxymethyl)D[Phe(3-CF3)][Phe(4-COOH)][Bip][Phe(4-COOH)][Orn][dL][Dab][Cha][Val(3-OH)]SC[Dab][AEEA][γGlu][AEEA]-{NH(CH2)12COOH}; thioether N-14): the IC50 was found to be 39 nM. In the case of `CC(C)C[C@H]1NC(=O)[C@H](CCCN)NC(=O)[C@H](Cc2ccc(C(=O)O)cc2)NC(=O)[C@H](Cc2ccc(-c3ccccc3)cc2)NC(=O)[C@H](Cc2ccc(C(=O)O)cc2)NC(=O)[C@H](Cc2cccc(C(F)(F)F)c2)NC(=O)[C@H](CC(=O)O)NC(=O)[C@H](Cc2ccc(OCC(=O)O)cc2)NC(=O)[C@H](C)NC(=O)CSC[C@@H](C(=O)N[C@@H](CCN)C(=O)NCCOCCOCC(=O)N[C@@H](CC(=O)NCCOCCOCC(=O)NCCCCCCCCCCCCC(=O)O)C(=O)O)NC(=O)[C@H](CO)NC(=O)[C@H](C(C)(C)O)NC(=O)[C@H](CC2CCCCC2)NC(=O)[C@H](CCN)NC1=O` [Compound 2935] ({CH2CO}-AY(Carboxymethyl)D[Phe(3-CF3)][Phe(4-COOH)][Bip][Phe(4-COOH)][Orn][dL][Dab][Cha][Val(3-OH)]SC[Dab][AEEA][βAsp][AEEA]-{NH(CH2)12COOH}; thioether N-14), the IC50 was 42.4 nM. Take `CC(C)C[C@@H]1NC(=O)CSC[C@@H](C(=O)N[C@@H](CCN)C(=O)NCCOCCOCC(=O)N[C@@H](CC(=O)NCCOCCOCC(=O)NCCCCCCCCCCCCC(=O)O)C(=O)O)NC(=O)[C@H](CO)NC(=O)[C@H](C(C)(C)O)NC(=O)[C@H](CC2CCCCC2)NC(=O)[C@H](CCN)NC(=O)[C@@H](CC(C)C)NC(=O)[C@H](CCCN)NC(=O)[C@H](Cc2ccc(C(=O)O)cc2)NC(=O)[C@H](Cc2ccc(-c3ccccc3)cc2)NC(=O)[C@H](Cc2ccc(C(=O)O)cc2)NC(=O)[C@H](Cc2cccc(C(F)(F)F)c2)NC(=O)[C@H](CC(=O)O)NC(=O)[C@H](Cc2ccc(OCC(=O)O)cc2)NC1=O` [Compound 2937] ({CH2CO}-LY(Carboxymethyl)D[Phe(3-CF3)][Phe(4-COOH)][Bip][Phe(4-COOH)][Orn][dL][Dab][Cha][Val(3-OH)]SC[Dab][AEEA][βAsp][AEEA]-{NH(CH2)12COOH}; thioether N-14): the IC50 came to 11.7 nM.

Turning to `COC[C@@H]1NC(=O)CSC[C@@H](C(=O)N[C@@H](CCN)C(=O)NCCOCCOCC(=O)N[C@@H](CCC(=O)NCCOCCOCC(=O)NCCCCCCCCCCCCC(=O)O)C(=O)O)NC(=O)[C@H](CO)NC(=O)[C@H](C(C)(C)O)NC(=O)[C@H](CC2CCCCC2)NC(=O)[C@H](CCN)NC(=O)[C@@H](CC(C)C)NC(=O)[C@H](CCCN)NC(=O)[C@H](Cc2ccc(C(=O)O)cc2)NC(=O)[C@H](Cc2ccc(-c3ccccc3)cc2)NC(=O)[C@H](Cc2ccc(C(=O)O)cc2)NC(=O)[C@H](Cc2cccc(C(F)(F)F)c2)NC(=O)[C@H](CC(=O)O)NC(=O)[C@H](Cc2ccc(OCC(=O)O)cc2)NC1=O` [Compound 2938] ({CH2CO}-S(Me)Y(Carboxymethyl)D[Phe(3-CF3)][Phe(4-COOH)][Bip][Phe(4-COOH)][Orn][dL][Dab][Cha][Val(3-OH)]SC[Dab][AEEA][γGlu][AEEA]-{NH(CH2)12COOH}; thioether N-14), the IC50 stood at 26.8 nM. With `CC(C)C[C@H]1NC(=O)[C@H](CCCN)NC(=O)[C@H](Cc2ccc(C(=O)O)cc2)NC(=O)[C@H](Cc2ccc(-c3ccccc3)cc2)NC(=O)[C@H](Cc2ccc(C(=O)O)cc2)NC(=O)[C@H](Cc2cccc(C(F)(F)F)c2)NC(=O)[C@H](CC(=O)O)NC(=O)[C@H](Cc2ccc(OCC(=O)O)cc2)NC(=O)[C@H](CN2CCOCC2)NC(=O)CSC[C@@H](C(=O)N[C@@H](CCN)C(=O)NCCOCCOCC(=O)N[C@@H](CCC(=O)NCCOCCOCC(=O)NCCCCCCCCCCCCC(=O)O)C(=O)O)NC(=O)[C@H](CO)NC(=O)[C@H](C(C)(C)O)NC(=O)[C@H](CC2CCCCC2)NC(=O)[C@H](CCN)NC1=O` [Compound 2940] ({CH2CO}-[Ala(morpholin-4-yl)]Y(Carboxymethyl)D[Phe(3-CF3)][Phe(4-COOH)][Bip][Phe(4-COOH)][Orn][dL][Dab][Cha][Val(3-OH)]SC[Dab][AEEA][γGlu][AEEA]-{NH(CH2)12COOH}; thioether N-14) the figure was 14.3 nM; with `CC(C)C[C@H]1NC(=O)[C@H](CCCN)NC(=O)[C@H](Cc2ccc(C(=O)O)cc2)NC(=O)[C@H](Cc2ccc(-c3ccccc3)cc2)NC(=O)[C@H](Cc2ccc(C(=O)O)cc2)NC(=O)[C@H](Cc2cccc(C(F)(F)F)c2)NC(=O)[C@H](CC(=O)O)NC(=O)[C@H](Cc2ccc(OCC(=O)O)cc2)NC(=O)[C@H](CN2CCOCC2)NC(=O)CSC[C@@H](C(=O)N[C@@H](CCN)C(=O)NCCOCCOCC(=O)N[C@@H](CC(=O)NCCOCCOCC(=O)NCCCCCCCCCCCCC(=O)O)C(=O)O)NC(=O)[C@H](CO)NC(=O)[C@H](C(C)(C)O)NC(=O)[C@H](CC2CCCCC2)NC(=O)[C@H](CCN)NC1=O` [Compound 2941] ({CH2CO}-[Ala(morpholin-4-yl)]Y(Carboxymethyl)D[Phe(3-CF3)][Phe(4-COOH)][Bip][Phe(4-COOH)][Orn][dL][Dab][Cha][Val(3-OH)]SC[Dab][AEEA][βAsp][AEEA]-{NH(CH2)12COOH}; thioether N-14), 27.8 nM. With `CC(C)C[C@H]1NC(=O)[C@H](CCCN)NC(=O)[C@H](Cc2ccc(C(=O)O)cc2)NC(=O)[C@H](Cc2ccc(-c3ccccc3)cc2)NC(=O)[C@H](Cc2ccc(C(=O)O)cc2)NC(=O)[C@H](Cc2cccc(C(F)(F)F)c2)NC(=O)[C@H](CC(=O)O)NC(=O)[C@H](Cc2ccc(OCC(=O)O)cc2)NC(=O)[C@H](CCN)NC(=O)CSC[C@@H](C(=O)N[C@@H](CCN)C(=O)NCCOCCOCC(=O)N[C@@H](CC(=O)NCCOCCOCC(=O)NCCCCCCCCCCCCC(=O)O)C(=O)O)NC(=O)[C@H](CO)NC(=O)[C@H](C(C)(C)O)NC(=O)[C@H](CC2CCCCC2)NC(=O)[C@H](CCN)NC1=O` [Compound 2943] ({CH2CO}-[Dab]Y(Carboxymethyl)D[Phe(3-CF3)][Phe(4-COOH)][Bip][Phe(4-COOH)][Orn][dL][Dab][Cha][Val(3-OH)]SC[Dab][AEEA][βAsp][AEEA]-{NH(CH2)12COOH}; thioether N-14), the IC50 stood at 75.8 nM. As to `CC(C)C[C@H]1NC(=O)[C@H](CCCN)NC(=O)[C@H](Cc2ccc(C(=O)O)cc2)NC(=O)[C@H](Cc2ccc(-c3ccccc3)cc2)NC(=O)[C@H](Cc2ccc(C(=O)O)cc2)NC(=O)[C@H](Cc2cccc(C(F)(F)F)c2)NC(=O)[C@H](CC(=O)O)NC(=O)[C@H](Cc2ccc(OCC(=O)O)cc2)NC(=O)[C@H]([C@H](C)N)NC(=O)CSC[C@@H](C(=O)N[C@@H](CCN)C(=O)NCCCCCCCCCCCCC(=O)O)NC(=O)[C@H](CO)NC(=O)[C@H](C(C)(C)O)NC(=O)[C@H](CC2CCCCC2)NC(=O)[C@H](CCN)NC1=O` [Compound 2944] ({CH2CO}-[Abu(3S-NH2)]Y(Carboxymethyl)D[Phe(3-CF3)][Phe(4-COOH)][Bip][Phe(4-COOH)][Orn][dL][Dab][Cha][Val(3-OH)]SC[Dab]-{NH(CH2)12COOH}; thioether N-14), the IC50 stood at 55 nM.

(Values after patent US20260022142A1, “MACROCYCLIC IMMUNOMODULATORS” (Bristol-Myers Squibb Company, priority 2022, published 2026).)
